{"source": "patent US20100179176A1", "about": "“V3 ANTAGONISTS FOR THE TREATMENT OR PREVENTION OF CHRONIC PAIN” (N.V. Organon, priority 2007, published 2010)", "key": {"[1]": {"tested_on": "mechanical allodynia induced by spinal nerve ligation in rats", "experiment": "Rat (Chung) model of neuropathic pain, von Frey paw withdrawal threshold", "assay_type": "in vivo", "details": "for Withdrawal threshold (g) at peak effect: spinal nerve ligation; for Effect on mechanical allodynia (in words): oral administration, three doses; for ED50: po, read-out: ED50 at peak effect (dose at which allodynia is reversed by 50%)", "protocol": "In this model, mechanical allodynia is induced by tight ligation of the left L5 spinal nerve.\nMale Wistar rats (150-175 g body weight at time of surgery) were employed in the study. Rats were placed on an elevated (˜40 cm) mesh floor in perspex boxes and the rats' withdrawal threshold to a mechanical stimulus (calibrated von Frey filaments) was measured using filaments of increasing force (2.6-167 mN). The von Frey filaments were applied to the plantar surface of the paw and the thershold response was determined using the up and down method. A positive response was noted if the paw was sharply withdrawn. A cut-off of 15 g was selected as the upper limit for testing. Following baseline measurements each animal was anaesthetised and the L5 spinal nerve tightly ligated. The animals were allowed to recover from the surgery for a period of at least three days. On the day of drug administration the paw withdrawal thresholds were re-measured (0 min). Immediately after this reading, the rats were dosed orally with vehicle or test compound. Readings were then made at intervals of 30, 60, 120, 180 and 240 min after compound administration.\nData were expressed as mean±s.e.m. The time of maximum effect for each animal in the top dose group was determined and these values averaged to calculate the mean time of maximum effect. For analytical purposes the time of maximum effect, tmax was defined as the time point closest to this averaged value. Data at tmax were compared between groups using the Kruskal-Wallis one-way analysis of variance, a non-parametric statistical test. Each of the treatment groups were then compared against the vehicle group, using the non-parametric Dunn's test. The ED50 (dose at which allodynia is reversed by 50%) value was also calculated at tmax using non linear regression (sigmoidal dose response; variable slope) with constants of 0 and 15 g (cut-off) for the bottom and top, respectively (XLFit software)."}, "[2]": {"tested_on": "tail flick latency in mice", "experiment": "Mouse tail flick assay of acute thermal pain", "assay_type": "in vivo", "details": "for Tail Flick Latency: mouse; for Effect on tail flick latencies (in words): oral administration, three doses, mouse, 20, 40 and 60 min post administration", "protocol": "The tail flick test is used to evaluate the antinociceptive activity of test compounds in mice. Animals are placed on the tail flick apparatus and their tails exposed to a focused beam of radiant heat. The mice react to the noxious thermal stimulus by flicking their tail away from the heat source. The time taken for these responses to occur is measured (latency; s).\nExperiments were performed using male ICR mice weighing (25-32 g). In brief, animals were held in place on the tail flick apparatus (Ugo Basile, Italy) by means of a perspex restrainer and their tail was positioned over the heat source. The latency to flick the tail from the radiant heat source focussed 2.5 cm from the tip was determined before (baseline readings) and at regular intervals after administration of the vehicle or test compounds (compound 1, 5.6-55.6 μmol/kg p.o.; compound 2, 5.3-52.6 μmol/kg p.o.). A 12 seconds cut-off was employed to prevent tissue damage.\nData are expressed as mean±s.e.m. and compared between groups using the Kruskal-Wallis one-way analysis of variance, a non-parametric statistical test. If statistical significance (P<0.05) is observed with this test, the vehicle group and each of the treatment groups is compared using the non-parametric Dunn's test."}, "[3]": {"tested_on": "mechanical hyperalgesia induced by complete Freund's adjuvant in rats", "experiment": "Rat CFA model of inflammatory pain, Randall-Sellito paw withdrawal threshold", "assay_type": "in vivo", "details": "for % Attenuation of hyperalgesia (peak effect): 7 days after CFA, peak effect 30 min", "protocol": "In this model, inflammation is induced by subcutaneous injection of complete Freund's adjuvant (CFA) into the hind paw. The associated mechanical hyperalgesia is quantified by measuring the reduction in paw withdrawal threshold (PWT) to a mechanical compression of the paw.\nExperiments were in male Wistar rats weighing (130-180 g). In brief, the rats' paw withdrawal threshold (PWT) to a mechanical compression of the hind paw was measured (baseline reading) using a Randall-Sellito apparatus (Ugo Basile). A cut-off of 200 g was employed to minimise tissue damage to the paw. The animals were then lightly anaesthetised with isoflurane (1-3%) and CFA (0.1 ml·paw^−1) injected subcutaneously (s.c.) into the plantar surface of the left hind paw. The animals were then returned to their home cage and left for the inflammation to develop.\nSeven days after CFA injection, PWT's were re-measured (0 min) and immediately after this reading, rats were dosed orally with either vehicle or compound 2 (3-30 mg/kg). Readings were then made at 30 min and 2 h post drug administration.\nData were plotted as mean±s.e.m. and compared between groups using the Kruskal-Wallis one-way analysis of variance, a non-parametric statistical test. […] The percent attenuation of mechanical hyperalgesia is calculated at time of peak effect (tmax)"}, "[4]": {"tested_on": "tolerance development to the analgesic activity of morphine", "details": "Database WPI, Derwent abstract; cited from earlier work"}}, "data": [{"smiles": "COc1cc(-c2nc3ccc(-c4cccc(CN(C)C)c4)cc3c(=O)n2CC(=O)NC(C)C)ccc1F", "note": "[Compound 1, 2-[6-(3-Dimethylaminomethylphenyl)-2-(4-fluoro-3-methoxyphenyl)-4-oxo-4H-quinazolin-3-yl]-N-isopropylacetamide]", "values": [{"measurement": "Withdrawal threshold (g) at peak effect", "setting": "[1]; 5.6 μmol/kg p.o., peak effect 120 min", "value": "4.6 ± 0.6", "unit": "g"}, {"measurement": "Withdrawal threshold (g) at peak effect", "setting": "[1]; 18.6 μmol/kg p.o., peak effect 120 min", "value": "5.6 ± 1.1", "unit": "g"}, {"measurement": "Withdrawal threshold (g) at peak effect", "setting": "[1]; 55.6 μmol/kg p.o., peak effect 120 min", "value": "11.4 ± 0.7", "unit": "g"}, {"measurement": "Effect on mechanical allodynia (in words)", "setting": "[1]", "value": "reversed mechanical allodynia in a dose-dependent fashion"}, {"measurement": "Time of peak anti-allodynic effect post drug administration", "setting": "[1]; p.o.", "value": 120, "unit": "min"}, {"measurement": "ED50", "setting": "[1]; at tmax", "value": 21.2, "unit": "µmol/kg"}, {"measurement": "Tail Flick Latency", "setting": "[2]; 5.6 μmol/kg p.o., 20 min post dose", "value": "3.5 ± 0.4", "unit": "s"}, {"measurement": "Tail Flick Latency", "setting": "[2]; 5.6 μmol/kg p.o., 40 min post dose", "value": "3.4 ± 0.2", "unit": "s"}, {"measurement": "Tail Flick Latency", "setting": "[2]; 5.6 μmol/kg p.o., 60 min post dose", "value": "3.5 ± 0.2", "unit": "s"}, {"measurement": "Tail Flick Latency", "setting": "[2]; 18.6 μmol/kg p.o., 20 min post dose", "value": "3.4 ± 0.3", "unit": "s"}, {"measurement": "Tail Flick Latency", "setting": "[2]; 18.6 μmol/kg p.o., 40 min post dose", "value": "3.5 ± 0.2", "unit": "s"}, {"measurement": "Tail Flick Latency", "setting": "[2]; 18.6 μmol/kg p.o., 60 min post dose", "value": "3.1 ± 0.2", "unit": "s"}, {"measurement": "Tail Flick Latency", "setting": "[2]; 55.6 μmol/kg p.o., 20 min post dose", "value": "3.3 ± 0.3", "unit": "s"}, {"measurement": "Tail Flick Latency", "setting": "[2]; 55.6 μmol/kg p.o., 40 min post dose", "value": "3.5 ± 0.3", "unit": "s"}, {"measurement": "Tail Flick Latency", "setting": "[2]; 55.6 μmol/kg p.o., 60 min post dose", "value": "3.3 ± 0.2", "unit": "s"}, {"measurement": "Effect on tail flick latencies (in words)", "setting": "[2]", "value": "had no effect on tail flick latencies"}]}, {"smiles": "CC(C)NC(=O)Cn1c(-c2cccc(Cl)c2)nc2ccc(OCCCN3CCCCC3)cc2c1=O", "note": "[Compound 2]", "values": [{"measurement": "Withdrawal threshold (g) at peak effect", "setting": "[1]; 5.3 μmol/kg p.o., peak effect 30 min", "value": "4.8 ± 1.0", "unit": "g"}, {"measurement": "Withdrawal threshold (g) at peak effect", "setting": "[1]; 17.3 μmol/kg p.o., peak effect 30 min", "value": "6.7 ± 1.1", "unit": "g"}, {"measurement": "Withdrawal threshold (g) at peak effect", "setting": "[1]; 52.6 μmol/kg p.o., peak effect 30 min", "value": "9.8 ± 1.8", "unit": "g"}, {"measurement": "Effect on mechanical allodynia (in words)", "setting": "[1]", "value": "reversed mechanical allodynia in a dose-dependent fashion"}, {"measurement": "Time of peak anti-allodynic effect post drug administration", "setting": "[1]; p.o.", "value": 30, "unit": "min"}, {"measurement": "ED50 at peak effect (dose at which allodynia is reversed by 50%)", "setting": "[1]; p.o., at tmax", "value": 21.0, "unit": "µmol/kg"}, {"measurement": "% Attenuation of hyperalgesia (peak effect)", "setting": "[3]; 5.7 μmol/kg p.o.", "value": "31.5 ± 9.4", "unit": "%"}, {"measurement": "% Attenuation of hyperalgesia (peak effect)", "setting": "[3]; 18.9 μmol/kg p.o.", "value": "43.1 ± 8.6", "unit": "%"}, {"measurement": "% Attenuation of hyperalgesia (peak effect)", "setting": "[3]; 56.6 μmol/kg p.o.", "value": "84.4 ± 12.0", "unit": "%"}, {"measurement": "Effect on mechanical hyperalgesia induced by CFA (in words)", "setting": "[3]; oral administration 5.7, 18.9 or 56.6 μmol/kg", "value": "reversed mechanical hyperalgesia induced by CFA in a dose-dependent fashion"}, {"measurement": "ED50 at peak effect (mechanical hyperalgesia)", "setting": "[3]; p.o., CFA", "value": 19.2, "unit": "µmol/kg"}, {"measurement": "Time of peak anti-algesic effect post drug administration", "setting": "[3]; p.o., CFA", "value": 30, "unit": "min"}, {"measurement": "Tail Flick Latency", "setting": "[2]; 5.3 μmol/kg p.o., 20 min post dose", "value": "3.4 ± 0.2", "unit": "s"}, {"measurement": "Tail Flick Latency", "setting": "[2]; 5.3 μmol/kg p.o., 40 min post dose", "value": "3.7 ± 0.2", "unit": "s"}, {"measurement": "Tail Flick Latency", "setting": "[2]; 5.3 μmol/kg p.o., 60 min post dose", "value": "3.6 ± 0.1", "unit": "s"}, {"measurement": "Tail Flick Latency", "setting": "[2]; 17.3 μmol/kg p.o., 20 min post dose", "value": "3.6 ± 0.1", "unit": "s"}, {"measurement": "Tail Flick Latency", "setting": "[2]; 17.3 μmol/kg p.o., 40 min post dose", "value": "3.6 ± 0.1", "unit": "s"}, {"measurement": "Tail Flick Latency", "setting": "[2]; 17.3 μmol/kg p.o., 60 min post dose", "value": "3.1 ± 0.1", "unit": "s"}, {"measurement": "Tail Flick Latency", "setting": "[2]; 52.6 μmol/kg p.o., 20 min post dose", "value": "3.5 ± 0.2", "unit": "s"}, {"measurement": "Tail Flick Latency", "setting": "[2]; 52.6 μmol/kg p.o., 40 min post dose", "value": "3.5 ± 0.2", "unit": "s"}, {"measurement": "Tail Flick Latency", "setting": "[2]; 52.6 μmol/kg p.o., 60 min post dose", "value": "3.2 ± 0.2", "unit": "s"}, {"measurement": "Effect on tail flick latencies (in words)", "setting": "[2]", "value": "had no effect on tail flick latencies"}]}, {"smiles": "COc1ccc(S(=O)(=O)N2C(=O)[C@@](c3ccccc3OC)(N3C[C@H](O)C[C@H]3C(=O)N(C)C)c3cc(Cl)ccc32)c(OC)c1", "note": "[Compound 3, reference compound]", "values": [{"measurement": "Withdrawal threshold (g) at peak effect", "setting": "[1]; 3 μmol/kg p.o., peak effect 180 min", "value": "5.0 ± 1.0", "unit": "g"}, {"measurement": "Withdrawal threshold (g) at peak effect", "setting": "[1]; 10 μmol/kg p.o., peak effect 180 min", "value": "6.9 ± 1.3", "unit": "g"}, {"measurement": "Withdrawal threshold (g) at peak effect", "setting": "[1]; 30 μmol/kg p.o., peak effect 180 min", "value": "10.1 ± 1.4", "unit": "g"}, {"measurement": "Effect on mechanical allodynia (in words)", "setting": "[1]", "value": "reversed mechanical allodynia in a dose-dependent fashion"}, {"measurement": "Time of peak anti-allodynic effect post drug administration", "setting": "[1]; p.o.", "value": 180, "unit": "min"}, {"measurement": "ED50", "setting": "[1]; at tmax", "value": 10.6, "unit": "µmol/kg"}, {"measurement": "Effect on tolerance development to the analgesic activity of morphine (in words)", "setting": "[4]", "value": "inhibits the tolerance development to the analgesic activity of morphine"}]}]}
